Laboratory results as given in patent US20250051283A1, “THERAPEUTIC COMPOUNDS AND METHODS” (priority 2023, published 2025).
Where “and” joins values, the source holds several entries; their conditions need not be identical. Equal entries are not always repeated. Where two headings read alike, the source gives them in different places.

Key:
EV-D68 2A^pro = EV-D68 2A^pro (Enterovirus D68, UniProt A0A097BW19); experiment: FRET-based enzymatic assay of EV-D68 2Apro inhibition; assay type: biochemical; conditions: for IC50: read-out: Enzymatic inhibitory activity IC50
Description: (§1) Protein expression and purification. EV-D68 2A^pro gene from strain US/KY/14-18953 was ordered from Genscript (Piscataway, NJ) in pET28b(+) vector with E. coli codon optimization. 2A^pro gene was subcloned into pE-SUMOstar vector according to the manufacturers protocol. Plasmid encoding WT-2A^pro was transformed into BL21(DE3) competent E. coli cells, and a single colony was picked and used to inoculate 10 mL of L.B. grown supplemented with 50 μg/mL kanamycin at 37° C. at 250 rpm. The 10 mL inoculant was added to 1 L of L.B. with 50 μg/mL kanamycin and grown to an OD600 of 0.8-1.0, cooled to 18° C., then induced using 0.5 mM IPTG. Induced cultures were incubated at 18° C. for an additional 24 h, then harvested and resuspended in lysis buffer (25 mM Tris (pH 7.5); 750 mM NaCl, 2 mM DTT with 0.5 mg/mL lysozyme, 0.5 mM PMSF and 0.02 mg/mL DNase I) and lysed with alternating sonication and French press cycles. The cell debris were removed by centrifugation at 12,000×g for 45 min […]. The supernatant was incubated with Ni-NTA resin for over 2 h at 4° C. on a rotator. The Ni-NTA resin was thoroughly washed with 50 mM imidazole in wash buffer (50 mM Tris (pH 7.5), 150 mM NaCl, and 2 mM DTT); for the SUMO-tagged protein, the protein was directly eluted with 300 mM imidazole; for the nontagged 2A^pro Ni-NTA resin was treated with SUMO Protease 1 to remove the SUMO tag, then 2A^pro was washed off from the column with 10 mM imidazole in wash buffer. The imidazole was removed via dialysis or 10 K molecular weight cut-off centrifugal concentrator spin column. The purity of the protein was confirmed with SDS-PAGE. The protein concentration was determined by classic BCA assay using bovine serum albumin as a standard. EV-D68 3C^pro in pET28b(+) vector was expressed as previously described^10.
(§2) Peptide synthesis. The FRET substrate of EV-D68 2A^pro, Dabcyl-KIRIVNT/GPGFGGE-Edans, was synthesized using the Fmoc solid phase synthesis strategy.
(§3) Enzymatic assays. The reaction buffer contains 50 mM Tris (pH7.0), 150 mM NaCl, 10% Glycerol, and 2 mM DTT, and the reaction was carried out at 30° C. in Cytation 5 imaging reader (Fisher Scientific) with EX360/40-EM460/40 filter. Reactions were monitored every 90 sec. […] The reaction was initiated by adding 20 μM of FRET substrate, and the reaction was monitored for 2 hours and initial velocity was calculated for the first 30 minutes via linear regression.

EV-D68 US/MO/14-18947 = experiment: CPE assay (neutral red) with EV-D68 US/MO/14-18947 in R.D. cells; assay type: cell-based, Enterovirus D68
Outline: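 R.D. cells infected (DMEM, 2% FBS, 30 mM MgCl2) for ≥1 h at 33° C before compound addition; CPE read by neutral red uptake ([…], 2 h, A540), plaque reduction under 1.2% avicel overlay, stained after 3 days. EC50 and CC50 (uninfected cells) from dose-response curve fits.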

[1] = target: T1, EV-D68 2A^pro (WT-2A^pro, strain US/KY/14-18953, expressed in E. coli BL21(DE3) from pE-SUMOstar vector) (enterovirus D68, UniProt A0A097BW19); experiment: FRET-based enzymatic assay of EV-D68 2A^pro inhibition (FRET substrate Dabcyl-KIRIVNT/GPGFGGE-Edans); assay type: biochemical
T1 construct: E. coli-codon-optimised gene, pE-SUMOstar, His-SUMO tag (removed with SUMO protease for nontagged form), E. coli BL21(DE3), Ni-NTA; 7JRE is the C107A mutant
Description: (§4) FIG. 4. […] Key structural variations compared to telaprevir were highlighted in red. Enzymatic inhibitory activity IC50 value was determined in the FRET-based assay. Antiviral EC50 value was determined in the CPE assay with EV-D68 US/MO/14-18947 in R.D. cells. Cytotoxicity CC50 value was determined using the neutral red uptake method in R.D. cells. The results are the mean±standard deviation of two independent experiments with three repeats in each experiment.
as §4, with “5.” for “4.”, “Jun8861” for “telaprevir”
as §1, §2, §3

R.D. cells = experiment: Cytotoxicity by neutral red uptake in R.D. cells, no viral infection; assay type: cell-based, Human
Description: (§5) Cell lines and viruses. Human rhabdomyosarcoma (R.D., ATCC, CCL-136) cells were maintained at 37° C. in a 5% CO2 atmosphere and cultured in Dulbecco's modified Eagle's medium (DMEM) supplemented with 10% fetal bovine serum (FBS) and 1% penicillin-streptomycin antibiotics. The following reagents were obtained through BEI Resources, NIAID, NIH: Human Enterovirus D68, US/MO/14-18949, NR-49130; Enterovirus D68, US/MO/14-18947, NR-49129; Enterovirus D68, US/IL/14-18952, NR-49131; Enterovirus D68, US/KY/14-18953, NR-49132; Enterovirus D68, US/IL/14-18956, NR-49133.
(§6) Antiviral assays. Cells for antiviral assays were seeded and grown overnight at 37° C. in a 5% CO2 atmosphere for ˜90% confluency the next day. For all infections, cells were washed with PBS containing magnesium and calcium and infected with virus diluted in DMEM with 2% FBS and 30 mM MgCl2. Viruses were incubated for at least 1 h at 33° C. in a 5% CO2 atmosphere, followed by the addition of compound as well as 1% penicillin-streptomycin. For CC50 measurements, the experiment was performed similarly but excluded viral infection. For cytopathic effect (CPE) assays, cells were stained with 66 µg/mL neutral red for 2 h and neutral red uptake was measured at absorbance 540 nm using a Multiskan FC Microplate Photometer (ThermoFisher Scientific). The EC50 and CC50 values were calculated from best-fit dose response curves using GraphPad Prism. For plaque reduction assays, an 1.2% avicel microcrystalline cellulose (FMC BioPolymer, Philadelphia, PA) overlay was used and cells were stained after 3 days as previously described^26.

[2] = system: EV-D68 US/KY/14-18953 (clade D); experiment: Broad-spectrum antiviral activity (Table 1), US/KY/14-18953; assay type: cell-based, Enterovirus D68; conditions: Enterovirus D, EVD68
Description: as §5
as §6, with “For CC50 measurements, the experiment was performed similarly but excluded viral infection.” left out, “For plaque reduction assays, an 1.2% avicel microcrystalline cellulose (FMC BioPolymer, Philadelphia, PA) overlay was used and cells were stained after 3 days as previously described^26.” left out

[3] = system: EV-D68 US/IL/14-18952 (clade B2); experiment: Broad-spectrum antiviral activity (Table 1), US/IL/14-18952; assay type: cell-based, Enterovirus D68; conditions: Enterovirus D, EVD68
Description: as §5
as §6, with “For CC50 measurements, the experiment was performed similarly but excluded viral infection.” left out, “For plaque reduction assays, an 1.2% avicel microcrystalline cellulose (FMC BioPolymer, Philadelphia, PA) overlay was used and cells were stained after 3 days as previously described^26.” left out

[4] = Enterovirus D, EVD68, RD, read-out: Antiviral EC50, CPE assay, EV-D68 US/MO/14-18947 in R.D. cells

| SMILES | enzymatic inhibition, in words, relative to the named comparator (EV-D68 2A^pro) | antiviral activity, in words, relative to the named comparator (EV-D68 US/MO/14-18947; CPE assay, EV-D68 US/MO/14-18947 in R.D. cells) | IC50 [1] [nM] | IC50 (EV-D68 2A^pro) | EC50 (EV-D68 US/MO/14-18947; [4]) [nM] | EC50 (EV-D68 US/MO/14-18947; read-out: Antiviral EC50, CPE assay, EV-D68 US/MO/14-18947 in R.D. cells) [nM] | CC50 (R.D. cells) [µM] | EC50 [2] [nM] | EC50 [3] [nM] |
| --- | --- | --- | --- | --- | --- | --- | --- | --- | --- |
| CCC[C@H](NC(=O)[C@@H]1[C@H]2CCC[C@H]2CN1C(=O)[C@@H](NC(=O)Cc1ccccc1)C(C)(C)C)C(=O)C(=O)NC1CC1 [Jun8681, (1S,3aR,6aS)—N—((S)-1-(cyclopropylamino)-1,2-dioxohexan-3-yl)-2-((S)-3,3-dimethyl-2-(2-phenylacetamido)butanoyl)octahydrocyclopenta[c]pyrrole-1-carboxamide] | reduced enzymatic inhibition and antiviral activity compared to telaprevir | reduced enzymatic inhibition and antiviral activity compared to telaprevir | 250 ± 20 |  |  |  |  |  |  |
| CCC[C@H](NC(=O)[C@@H]1[C@H]2CCC[C@H]2CN1C(=O)[C@@H](NC(=O)CC1CCCCC1)C(C)(C)C)C(=O)C(=O)NC1CC1 [Jun8814, (1S,3aR,6aS)-2-((S)-2-(2-cyclohexylacetamido)-3,3-dimethylbutanoyl)-N—((S)-1-(cyclopropylamino)-1,2-dioxohexan-3-yl)octahydrocyclopenta[c]pyrrole-1-carboxamide] |  |  | 90 ± 10 | 80 to 140 nM | 160 to 750 |  |  |  |  |
| CCC[C@H](NC(=O)[C@@H]1[C@H]2CCC[C@H]2CN1C(=O)[C@@H](NC(=O)CC1CCCC1)C(C)(C)C)C(=O)C(=O)NC1CC1 [Jun971, (1S,3aR,6aS)-2-((S)-2-(2-cyclopentylacetamido)-3,3-dimethylbutanoyl)-N—((S)-1-(cyclopropylamino)-1,2-dioxohexan-3-yl)octahydrocyclopenta[c]pyrrole-1-carboxamide] |  |  | 100 ± 10 | 80 to 140 nM | 160 to 750 |  |  |  |  |
| CCC[C@H](NC(=O)[C@@H]1[C@H]2CCC[C@H]2CN1C(=O)[C@@H](NC(=O)CC12CC3CC(CC(C3)C1)C2)C(C)(C)C)C(=O)C(=O)NC1CC1 [Jun8861] |  |  |  | 80 to 140 nM and 80 nM | 160 to 750 | 160 | 36.2 |  |  |
| CCC[C@H](NC(=O)[C@@H]1[C@H]2CCC[C@H]2CN1C(=O)[C@@H](NC(=O)[C@@H](NC(=O)c1cnccn1)C1CCCCC1)C(C)(C)C)C(=O)C(=O)NC1CC1 [Telaprevir, reference compound] |  |  |  |  |  |  | 83.2 | 209 ± 37.1 | 828 ± 107 |
